The values that follow come from ChEMBL document CHEMBL5316307, “Searching for Novel Noncovalent Nuclear Export Inhibitors through a Drug Repurposing Approach” (J Med Chem, 2023).

As a reminder, the IC50 is the point on the concentration scale where inhibition reaches its midpoint. One may read the Kd as the equilibrium constant for the complex coming apart.

A short description of data set [1]: Stability of the compound at 100 uM in presence of DTT. The class given is physicochemical.
The target in data set [2] is T1, Exportin-1 (Homo sapiens, UniProt O14980). Nature of the data set: Binding affinity to CRM1 in human HeLa cells assessed as thermal stabilization at 100 uM at 4 to 90 degreeC incubated for 3 mins by […] analysis. The format is cell-based.
The next data set concerns HGC-27. Nature of the data set: Cytotoxicity against human HGC-27 cells assessed as inhibition of cell growth incubated for 72 hrs by SRB assay. The format is functional, cell-based. The conditions noted are these: HGC-27, 72 h.
In data set [3] the target is T1, Exportin-1. Nature of the data set: Inhibition of human CRM1 at 50 uM by GST-NES MVM based pulldown assay.
Data set [4] addresses T1, Exportin-1. Nature of the data set: Inhibition of human CRM1 at 3 to 30 uM by GST-NES MVM based pulldown assay. The conditions noted are these: dose 3-30 µM.
Data set [5] concerns the target T1, Exportin-1. Nature of the data set: Non-covalent inhibition of human CRM1 at 100 uM by GST-NES MVM based pulldown assay.
Data set [6] concerns Exportin-1 (Homo sapiens), O14980 [C528S]. Nature of the data set: Inhibition of human CRM1 C7 fragment C528S mutant at 50 to 100 uM by GST-NES MVM based pulldown assay. The settings on record: dose 50-100 µM.
Data set [7] concerns MDA-MB-453. Nature of the data set: Synergistic cytotoxicity against human MDA-MB-453 cells assessed as combination index at 100 uM incubated for 3 days in presence of 30 nM doxorubicin by SRB assay. The format is functional. The conditions noted are these: time 3 day. (In general: Sulforhodamine B stains cellular protein and so reports cell mass.)
In data set [8] the target is T1, Exportin-1. Nature of the data set: Competitive inhibition of human CRM1 assessed as dissociation constant incubated in presence of RanGTP and IAF-conjugated protein kinase inhibitor peptide by MST assay.
The subject of data set [9] is MDA-MB-453. Nature of the data set: Synergistic cytotoxicity against human MDA-MB-453 cells assessed as combination index at 100 uM incubated for 3 days in presence of 810 nM doxorubicin by SRB assay. The class given is functional. The conditions noted are these: time 3 day.
Another data set relates to SW480. Nature of the data set: Cytotoxicity against human SW480 cells assessed as inhibition of cell growth at 50 uM incubated for 72 hrs by SRB assay. The class given is functional, cell-based.
Data set [10] deals with MDA-MB-453. Nature of the data set: Synergistic cytotoxicity against human MDA-MB-453 cells assessed as combination index at 100 uM incubated for 3 days in presence of 270 nM doxorubicin by SRB assay. The settings on record: time 3 day. The format is functional.
Another data set relates to HepG2. Nature of the data set: Cytotoxicity against human HepG2 cells assessed as inhibition of cell growth at 50 uM incubated for 72 hrs by SRB assay. The format is functional, cell-based.
For another data set, the system named is A2780. Nature of the data set: Cytotoxicity against human A2780 cells assessed as inhibition of cell growth at 50 uM incubated for 72 hrs by SRB assay. The format is functional, cell-based.
Another data set has as its system HeLa. Nature of the data set: Cytotoxicity against human HeLa cells assessed as inhibition of cell growth at 50 uM incubated for 72 hrs by SRB assay. The format is functional, cell-based.
In a further data set the test system is PANC-1. Nature of the data set: Cytotoxicity against human PANC-1 cells assessed as inhibition of cell growth at 50 uM incubated for 72 hrs by SRB assay. The format is functional, cell-based.
The subject of data set [11] is MDA-MB-453. Nature of the data set: Cytotoxicity against human MDA-MB-453 cells assessed as inhibition of cell growth at 50 uM incubated for 72 hrs by SRB assay. The class given is functional, cell-based.
Data set [12] relates to MDA-MB-453. Nature of the data set: Synergistic cytotoxicity against human MDA-MB-453 cells assessed as combination index at 100 uM incubated for 3 days in presence of 90 nM doxorubicin by SRB assay. The class given is functional. The conditions noted are these: time 3 day.
Data set [13] deals with T1, Exportin-1. Nature of the data set: Binding affinity to NES groove of human CRM1 C7 fragment at 50 to 100 uM by GST-NES MVM based pulldown assay. The conditions noted are these: dose 50-100 µM.
The target in data set [14] is T1, Exportin-1. Nature of the data set: Inhibition of CRM1 in semi-permeabilized human HeLa cells transfected with GFP-NES-NLS fusion plasmid assessed as inhibition of nuclear export of cargoes at 50 to 100 uM incubated for 30 mins by immunostaining analysis. The format is cell-based. The conditions noted are these: dose 50-100 µM.
In the next data set the test system is MGC-803. Nature of the data set: Cytotoxicity against human MGC-803 cells assessed as inhibition of cell growth at 50 uM incubated for 72 hrs by SRB assay. The format is functional, cell-based.
For data set [15], the system named is MDA-MB-453. Nature of the data set: Synergistic cytotoxicity against human MDA-MB-453 cells assessed as combination index at 100 uM incubated for 3 days in presence of 10 nM doxorubicin by SRB assay. The conditions noted are these: time 3 day. The format is functional.
The target in data set [16] is T1, Exportin-1. Nature of the data set: Inhibition of CRM1 in intact human HeLa cells transfected with GFP-NES-NLS fusion plasmid assessed as inhibition of nuclear export of cargoes at 200 uM incubated for 30 mins by immunostaining analysis. The class given is cell-based.
The subject of the next data set is Ishikawa. Nature of the data set: Cytotoxicity against human Ishikawa cells assessed as inhibition of cell growth at 50 uM incubated for 72 hrs by SRB assay. The class given is functional, cell-based.

Active and inactive are the calls of the source. No cut-off for these calls is given here.

T1 sequence (O14980 whole entry): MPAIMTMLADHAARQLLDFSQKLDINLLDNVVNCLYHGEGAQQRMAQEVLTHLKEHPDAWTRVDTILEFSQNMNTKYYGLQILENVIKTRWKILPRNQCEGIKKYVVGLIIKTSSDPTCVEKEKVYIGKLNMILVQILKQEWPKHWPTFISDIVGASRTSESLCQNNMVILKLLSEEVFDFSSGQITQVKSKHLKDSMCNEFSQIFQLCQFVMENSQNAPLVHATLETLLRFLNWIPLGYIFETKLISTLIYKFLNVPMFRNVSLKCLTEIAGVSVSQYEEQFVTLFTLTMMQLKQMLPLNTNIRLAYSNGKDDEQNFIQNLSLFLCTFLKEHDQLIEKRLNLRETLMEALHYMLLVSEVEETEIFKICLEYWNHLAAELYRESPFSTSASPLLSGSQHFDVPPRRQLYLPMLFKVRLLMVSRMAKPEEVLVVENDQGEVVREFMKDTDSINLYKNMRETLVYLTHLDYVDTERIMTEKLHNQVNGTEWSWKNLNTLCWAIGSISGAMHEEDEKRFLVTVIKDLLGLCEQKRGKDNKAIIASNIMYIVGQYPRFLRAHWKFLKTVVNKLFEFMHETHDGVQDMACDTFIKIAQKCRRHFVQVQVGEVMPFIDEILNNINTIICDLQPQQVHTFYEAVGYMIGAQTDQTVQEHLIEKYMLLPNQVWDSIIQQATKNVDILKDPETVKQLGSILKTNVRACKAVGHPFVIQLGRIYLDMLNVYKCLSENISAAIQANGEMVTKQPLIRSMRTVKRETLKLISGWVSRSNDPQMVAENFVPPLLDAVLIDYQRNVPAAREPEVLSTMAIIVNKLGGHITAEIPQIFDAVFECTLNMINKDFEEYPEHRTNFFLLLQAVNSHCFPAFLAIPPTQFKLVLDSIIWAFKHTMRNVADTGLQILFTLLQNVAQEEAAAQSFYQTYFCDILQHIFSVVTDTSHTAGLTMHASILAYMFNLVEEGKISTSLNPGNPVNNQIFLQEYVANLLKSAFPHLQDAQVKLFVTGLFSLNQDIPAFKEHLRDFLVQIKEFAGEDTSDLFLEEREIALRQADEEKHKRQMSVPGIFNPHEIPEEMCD
Chain of Exportin-1 (Homo sapiens), O14980 [C528S] (O14980 whole entry C528S, the tested form may be a part): as the sequence (O14980 whole entry) above, with C528S counted along it

Consider `CC(C)CCNC/C=C/[S+]([O-])c1cc(C(F)(F)F)cc(C(F)(F)F)c1` (stereo unspecified), for which, in data set [1], the Stability result is “Unstable”.
As for `COc1cc(C(=O)N(C)S(=O)(=O)c2ccccc2C)ccc1Cc1cn(C)c2ccc(NC(=O)OC3CCCC3)cc12`, the result at Exportin-1 [2] was inactive. Also, in the data set with HGC-27, the IC50 came out at 285 µM. Also, the inhibition entry at Exportin-1 [3] and on Exportin-1 [3] (tested as the 2H-labelled form) was “inactive” throughout.
`[2H]C([2H])([2H])N(C(=O)c1ccc(Cc2cn(C)c3ccc(NC(=O)OC4CCCC4)cc23)c(OC)c1)S(=O)(=O)c1ccccc1C`: in the data set with HGC-27, the IC50 came out at 457 µM.
For the molecule `COC(=O)Nc1ccc2c(c1)c(Cc1ccc(C(=O)NS(=O)(=O)c3ccccc3C)cc1OC)cn2C`, in the data set on HGC-27, the half-inhibitory concentration (IC50) was found to be 44 µM. Besides, at Exportin-1 [4], the inhibition result was “Active”.
For the molecule `COc1cc(C(=O)NS(=O)(=O)c2cccc(C)c2)ccc1Cc1cn(C)c2ccc(NC(=O)OC3CCCC3)cc12`, the half-inhibitory concentration (IC50) with HGC-27 was 44 µM. Moreover, the inhibition entry on Exportin-1 [4] was “Active”.
For the molecule `COc1cc(C(=O)NS(=O)(=O)c2ccc(C)cc2)ccc1Cc1cn(C)c2ccc(NC(=O)OC3CCCC3)cc12`, the IC50 in the data set on HGC-27 was determined as 44 µM.
Take `CC(O)(CS(=O)(=O)c1ccc(F)cc1)C(=O)Nc1ccc(C#N)c(C(F)(F)F)c1` (stereo unspecified): the inhibition result at Exportin-1 [5] is “inactive”.
On the same count and under the same terms, in the case of `N[C@@H](CC(=O)N1CCn2c(nnc2C(F)(F)F)C1)Cc1cc(F)c(F)cc1F` it was “inactive”.
Regarding `O=C(/C=C\n1cnc(-c2cc(C(F)(F)F)cc(C(F)(F)F)c2)n1)NNc1cnccn1`, the inhibition result in data set [6] was “Active”.
In the case of `COc1cc(C(=O)NS(=O)(=O)c2ccccc2C)ccc1Cc1cn(C)c2ccc(NC(=O)OC3CCCC3)cc12` [ZAFIRLUKAST], the CI was determined as 0.78 in the data set with MDA-MB-453 [7]; 0.58 in the data set on MDA-MB-453 [9]; 0.88 in the data set on MDA-MB-453 [10]; 0.78 with MDA-MB-453 [12]; 0.78 with MDA-MB-453 [15]. Also, the outcome on Exportin-1 [2] and at Exportin-1 [13] was Active. Further, in the data set on HGC-27, the concentration for half-maximal inhibition (IC50) amounted to 44 µM. Besides, the Kd at Exportin-1 [8] amounted to 10 µM. For the same molecule, the inhibition result with SW480, in the data set on HepG2, in the data set on A2780, on Exportin-1 [5], in the data set with HeLa and with PANC-1 was “Active” in each case. For the same molecule, the inhibition entry in the data set on MDA-MB-453 [11], at Exportin-1 [14], with MGC-803, on Exportin-1 [16] and with Ishikawa was “Active” throughout. For the same molecule, in [6], the inhibition entry was “inactive”. Besides, the Stability result in [1] is on record as “Stable”.
